The source of these data is patent US5229371A, “Chemical modification of elsamicin A at the 3' and/or 4' OH groups” (Bristol-Myers Squibb Company, priority 1992, dated 1993).

≈ marks a conversion by molar mass, not a printed value. Read-outs that look alike come from different tables or passages of the source. Bounds are passed on as bounds.

For assay [1], the system named is P388 leukemia. Put plainly: In vivo antitumor activity against lymphocytic leukemia P388 in mice (Q1Dx3, ip). Set-up: species or system mouse (female CDF1). The conditions noted are these: for T/C % of MST: Q1D × 3, ip; for minimum effective dose (MED) compared with elsamicin A: T/C ≥125 significant. The method, then: (§1) In vivo antitumor activity of the above five derivatives was tested in the lymphocytic leukemia P388 and melanoma B16 systems. Female CDF1 (for P388) and male BDF1 (for B16) mice were inoculated by ip injection at 10^6 P388 cells and 0.5 ml of a 10% B16 brei per mouse, respectively (day 0).
(§2) The percent increase of median survival time (MST) of treated animals over that of untreated control animals was determined and reported as T/C %.

Assay [2] relates to leukemia P388. The following applies: P388, in vitro; cited from earlier work.
For assay [3], the system named is aerobic gram-positive bacteria. The conditions noted are these: cited from earlier work.
Assay [4] has as its system B16-F10 melanoma cells. Put plainly: cells. The conditions noted are these: Mus musculus, B16-F10, 72 h, read-out: Cytotoxicity IC50.
Procedure: For in vitro cytotoxicity experiment, murine melanoma B16-F10 cells were grown and maintained in Eagle's minimum essential medium (Nissui), which contains kanamycin (60 μg/ml), supplemented with heat-inactivated fetal calf serum (10%) and non-essential amino acids (0.6%) at 37° C. under a humidified atmosphere in a 5% CO2 incubator. Exponentially growing B16-F10 cells were harvested, counted and suspended in the culture medium at the concentration of 2.0×10^4 cells/ml. The cell suspension (180 μl) was planted into wells of a 96-well microtiter plate and incubated for 24 hours. Test compound (20 μl) were added to the wells and the plates were further incubated for 72 hours. The cytotoxic activity was colorimetrically determined at 540 nm after staining viable cells with neutral red solution.
Assay [5] has as its system lymphoid leukemia L1210. The conditions noted are these: L1210, in vitro; cited from earlier work.
Assay [6] has as its system anaerobic bacteria. The following applies: cited from earlier work.
Assay [7] deals with B16 melanoma. Put plainly: In vivo antitumor activity against B16 melanoma in mice (Q4Dx3, ip). Set-up: species or system mouse (male BDF1). The conditions noted are these: for T/C % of MST / No. of survivors/tested on day 50: Q4D × 3, ip. On the procedure:
as §1, §2

The test system of assay [8] is melanotic melanoma B16. The following applies: B16, in vitro; cited from earlier work.
Assay [9] relates to leukemia P388. The following applies: P388, in vivo; cited from earlier work.
In assay [10] the test system is melanotic melanoma B16. The conditions noted are these: B16, in vivo; cited from earlier work.
The test system of assay [11] is lymphoid leukemia L1210. The conditions noted are these: L1210, in vivo; cited from earlier work.

For the compound `COC1C(N)C(OC2C(Oc3cccc4c(O)c5c(=O)oc6ccc(C)c7c(=O)oc(c34)c5c67)OC(C)C(O)C2(C)O)OC(C)C1O` (stereo not shown) [Compound 1, Elsamicin A], the “T/C % of MST” value in assay [1] (P388, 0.1 mg/kg/day) was 123%; in assay [1] (P388, 0.3 mg/kg/day) it was 140%; in assay [1] (P388, 1 mg/kg/day), 155%; in assay [1] (P388, 3 mg/kg/day) it was 180%; in [1] (P388, 10 mg/kg/day), 190%; in [1] (P388, 20 mg/kg/day) it was “Tox”. The “T/C % of MST” value in assay [7] (B16, 0.1 mg/kg/day) is on record as 116%; in assay [7] (B16, 0.3 mg/kg/day), 139%; in assay [7] (B16, 1 mg/kg/day), 179%; in [7] (B16, 3 mg/kg/day) it was ≥ 216%; in assay [7] (B16, 10 mg/kg/day), ≥ 298%. Further, the “activity against murine tumor cells” value in [2], in assay [5], in assay [8], in [9], in [10] and in [11] was “exerts activity” in each case. In addition, the antibacterial activity result in [3] and in assay [6] was “exhibits antibacterial activity” in each case. Besides, the IC50 in assay [4] was determined as 0.03 µg/mL (≈ 0.0459 µM). Moreover, the “No. of survivors/tested on day 50” value in assay [7] (B16, 3 mg/kg/day) is reported as 2/12; in assay [7] (B16, 10 mg/kg/day), 2/12.

Take `COC1C(N)C(OC2C(Oc3cccc4c(O)c5c(=O)oc6ccc(C)c7c(=O)oc(c34)c5c67)OC(C)C3OC(C)(C)OC32C)OC(C)C1O` (stereo not shown) [Compound 6a, 3',4'-O-Isopropylideneelsamicin A]: the “T/C % of MST” value in [1] (P388, 0.1 mg/kg/day) is on record as 120%; in [1] (P388, 0.3 mg/kg/day), 140%; in [1] (P388, 1 mg/kg/day) it was 170%; in [1] (P388, 3 mg/kg/day), 210%; in assay [7] (B16, 0.1 mg/kg/day), 105%; in assay [7] (B16, 0.3 mg/kg/day), 116%. Further, the “T/C % of MST” value in assay [7] (B16, 1 mg/kg/day) was found to be 166%; in assay [7] (B16, 3 mg/kg/day) it was 192%; in [7] (B16, 10 mg/kg/day), 82%. In assay [1] (P388 system), the “minimum effective dose (MED) compared with elsamicin A” value is given as “as active as the parent compounds”. Besides, the concentration for half-maximal inhibition (IC50) in assay [4] was 0.025 µg/mL (≈ 0.036 µM).

On to `COC1C(N)C(OC2C(Oc3cccc4c(O)c5c(=O)oc6ccc(C)c7c(=O)oc(c34)c5c67)OC(C)C3OC4(CCCCC4)OC32C)OC(C)C1O` (stereo not shown) [Compound 6b, 3',4'-O-Cyclohexylideneelsamicin A], for which the “T/C % of MST” value turned out to be 120% in assay [1] (P388, 0.3 mg/kg/day); 140% in [1] (P388, 1 mg/kg/day); 175% in assay [1] (P388, 3 mg/kg/day); 165% in assay [1] (P388, 10 mg/kg/day); 111% in assay [7] (B16, 0.3 mg/kg/day); 132% in assay [7] (B16, 1 mg/kg/day). Also, the “T/C % of MST” value was 175% in [7] (B16, 3 mg/kg/day) and 200% in assay [7] (B16, 10 mg/kg/day). For the same compound, the IC50 in assay [4] is 0.04 µg/mL (≈ 0.0545 µM).

On to `COC1C(N)C(OC2C(Oc3cccc4c(O)c5c(=O)oc6ccc(C)c7c(=O)oc(c34)c5c67)OC(C)C3OC(c4ccccc4)OC32C)OC(C)C1O` (stereo not shown) [Compound 6c, 3',4'-O-Benzylideneelsamicin A], for which the “T/C % of MST” value in [1] (P388, 0.1 mg/kg/day) is 110%; in assay [1] (P388, 0.3 mg/kg/day), 130%; in assay [1] (P388, 1 mg/kg/day), 150%; in assay [1] (P388, 3 mg/kg/day), 165%; in assay [1] (P388, 10 mg/kg/day), 180%; in assay [1] (P388, 20 mg/kg/day), “Tox”. For the same compound, the “T/C % of MST” value in assay [7] (B16, 0.1 mg/kg/day) worked out at 121%; in [7] (B16, 0.3 mg/kg/day), 114%; in assay [7] (B16, 1 mg/kg/day), 136%; in [7] (B16, 3 mg/kg/day) it was 179%; in [7] (B16, 10 mg/kg/day), 186%. Moreover, the “minimum effective dose (MED) compared with elsamicin A” value in assay [1] (P388 system) is recorded as “as active as the parent compounds”. Besides, the IC50 in [4] amounted to 0.07 µg/mL (≈ 0.0944 µM).

With `COC1OC2C(C)OC(Oc3cccc4c(O)c5c(=O)oc6ccc(C)c7c(=O)oc(c34)c5c67)C(OC3OC(C)C(O)C(OC)C3N)C2(C)O1` (stereo not shown) [Compound 6d, 3',4'-O-Methoxymethylideneelsamicin A], the “T/C % of MST” value in assay [1] (P388, 0.1 mg/kg/day) was 124%; in assay [1] (P388, 0.3 mg/kg/day), 137%; in [1] (P388, 1 mg/kg/day), 167%; in assay [1] (P388, 3 mg/kg/day), 167%; in assay [1] (P388, 10 mg/kg/day), 224%; in assay [1] (P388, 20 mg/kg/day), “Tox”. For the same compound, the “T/C % of MST” value in [7] (B16, 0.1 mg/kg/day) is on record as 120%; in assay [7] (B16, 0.3 mg/kg/day) it was 137%; in [7] (B16, 1 mg/kg/day) it was 167%; in assay [7] (B16, 3 mg/kg/day), 283%; in assay [7] (B16, 10 mg/kg/day), ≥ 333%. In [1] (P388 system), the “minimum effective dose (MED) compared with elsamicin A” value was “as active as the parent compounds”. In assay [4], the IC50 worked out at 0.05 µg/mL (≈ 0.0719 µM). The “No. of survivors/tested on day 50” value in assay [7] (B16, 10 mg/kg/day) was 3/4. The “response / therapeutic activity (in words)” value in assay [7] (B16 system) is on record as “extremely potent therapeutic activity”. For the same compound, the “T/C % values compared with elsamicin A (1)” value in [7] (B16 system, 3 and 10 mg/kg/day) is listed as “higher T/C % values”.

Consider `COC1C(N)C(OC2C(Oc3cccc4c(O)c5c(=O)oc6ccc(C)c7c(=O)oc(c34)c5c67)OC(C)C(OC3CCCCO3)C2(C)O)OC(C)C1O` (stereo not shown) [Compound 8, 4'-O-Tetrahydropyranylelsamicin A], for which the “T/C % of MST” value was 130% in assay [1] (P388, 0.1 mg/kg/day); 145% in assay [1] (P388, 0.3 mg/kg/day); 168% in assay [1] (P388, 1 mg/kg/day); 190% in assay [1] (P388, 3 mg/kg/day); 225% in assay [1] (P388, 10 mg/kg/day); “Tox” in assay [1] (P388, 20 mg/kg/day). In addition, the “T/C % of MST” value in [7] (B16, 0.1 mg/kg/day) was 133%; in [7] (B16, 0.3 mg/kg/day), 159%; in assay [7] (B16, 1 mg/kg/day) it was 248%; in assay [7] (B16, 3 mg/kg/day) it was ≥ 281%; in [7] (B16, 10 mg/kg/day) it was ≥ 330%; in [7] (B16, 20 mg/kg/day) it was ≥ 370%. Moreover, in assay [1] (P388 system), the “T/C % values (in words)” value is recorded as “high T/C % values”. Moreover, the “minimum effective dose (MED) compared with elsamicin A” value in assay [1] (P388 system) was “three times more potent”. In [4], the IC50 came out at 0.04 µg/mL (≈ 0.0542 µM). In addition, the “No. of survivors/tested on day 50” value is reported as 1/4 in [7] (B16, 3 mg/kg/day); 2/4 in assay [7] (B16, 10 mg/kg/day); 3/4 in assay [7] (B16, 20 mg/kg/day). Moreover, in assay [7] (B16 system), the “MED and T/C % values compared with elsamicin A (1)” value is recorded as “better than elsamicin A (1)”. Besides, in assay [7] (B16 system, 3~20 mg/kg/day), the “survivors on day 50 (in words)” value is on record as “Some survivors”.

Broadly, the IC50 is the concentration that gives 50% inhibition.
